According to patent publication US12612386B2, “Heteroaryl-triazole compounds as pesticides” (Bayer Aktiengesellschaft, priority 2020, dated 2026):

Key:
Format in all cases: in vivo
[1] = system: cattle tick larvae (Rhipicephalus microplus), strain Parkhurst, resistant against synthetic pyrethroids; experiment: Rhipicephalus (Boophilus) microplus in-vitro contact test, larval cattle tick; conditions: 5 μg/cm^2 (=500 g/ha), after 48 hours
In short: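 After drying, 20-50 larvae were held per tube at 27° C., 85% relative humidity for 48 h, and efficacy was scored as % dead or moribund.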

[2] = system: adult brown dog ticks (Rhipicephalus sanguineus); experiment: Rhipicephalus sanguineus in-vitro contact test, adult brown dog ticks; conditions: 48 h, read-out: efficacy (ticks dead or moribund)
In short: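 Read-out: % efficacy as dead or moribund ticks, judged 48 h after exposure by failure to climb away from a 45-50° C heating plate within 5 min. Tubes were coated with acetone solution (900 ppm = 5 μg/cm^2 surface dose) and held 5-10 adults each at room temperature.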

[3] = system: larvae of the banded cucumber beetle (Diabrotica balteata); experiment: Diabrotica balteata spray test; conditions: 168 h, 100 g/ha (=32 μg/well), after 7 days, read-out: efficacy (seedling growth)
In short: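 Efficacy is seedling survival after 7 days, where 0% means no seedlings grew and 100% means growth equal to untreated, uninfested controls. Wheat seedlings, germinated on agar for 1 day, were sprayed with the aqueous emulsifier dilution (acetone/DMF solvent) and then exposed to 10–20 banded cucumber beetle larvae.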

[4] = system: green peach aphid (Myzus persicae); experiment: Myzus persicae spray test (MYZUPE); conditions: 120 h, 100 g/ha, after 5 days
In short: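 Percent aphid kill, with 0% meaning none killed, was read 5 days after spraying. The preparation (acetone–DMF solvent, water with 1000 ppm emulsifier) was applied to Brassica pekinensis leaf disks carrying mixed-instar green peach aphids.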

[5] = system: adult engorged female ticks (Rhipicephalus microplus); experiment: Rhipicephalus (Boophilus) microplus injection test; conditions: 4 μg/animal, egg deposition after 7 days
Protocol: Rhipicephalus (Boophilus) Microplus—Injection Test
(§1) Solvent: dimethyl sulfoxide
To produce a suitable preparation of active compound, 10 mg of active compound are dissolved in 0.5 mL solvent, and the concentrate is diluted with solvent to the desired concentration.
Five adult engorged female ticks (Rhipicephalus microplus) are injected with 1 μL compound solution into the abdomen. The ticks are transferred into replica plates and incubated in a climate chamber.
After 7 days egg deposition of fertile eggs is monitored. Eggs where fertility is not visible are stored in a climate chamber till hatching after about 42 days. An efficacy of 100% means all eggs are infertile; 0% means all eggs are fertile.

[6] = system: adult mosquitoes Aedes aegypti strain MONHEIM; experiment: Aedes aegypti test (AEDSAE surface treatment & contact assay); conditions: 24 hours after contact, read-out: efficacy (mortality)
In short: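 Compound in acetone containing 2000 ppm rapeseed oil methyl ester applied to a glazed tile and dried; adult mosquitoes exposed on the treated surface for 30 minutes. Percent mortality scored 24 hours after contact (100% = all dead, 0% = none dead).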

[7] = system: adult unfed cat fleas (Ctenocephalides felis); experiment: Ctenocephalides felis oral test; conditions: 48 h
Protocol: Ctenocephalides felis—Oral Test
as §1
To produce a suitable preparation of active compound, 10 mg of active compound are dissolved in 0.5 mL solvent, and the concentrate is diluted with citrated cattle blood to the desired concentration.
Approximately 20 adult unfed cat fleas (Ctenocephalides felis) are placed in a flea chamber whose top and bottom is covered with gauze. A chamber whose bottom is sealed with parafilm, is filled with the blood-compound solution and placed on top of the flea chamber, so that the fleas can suck the blood. The blood chamber is heated to 37° C. whereas the flea chamber is kept at room temperature.
After 2 days mortality in % is determined. 100% means all the fleas have been killed; 0% means none of the fleas have been killed.

[8] = system: fall armyworm larvae (Spodoptera frugiperda); experiment: whole plant or invertebrate; conditions: 168 h
In short: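 Percent kill of Spodoptera frugiperda caterpillars, read 7 days after infestation of dried, spray-treated Zea mays leaf pieces. Spray preparation: compound in acetone plus dimethylformamide, diluted with emulsifier-containing water.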

`C[C@H](NC(=O)c1cc(Br)cc(OC(F)(F)F)c1)c1ncnn1-c1cc(C#N)ncn1` [I-1, 3-bromo-N-{(1S)-1-[1-(6-cyanopyrimidin-4-yl)-1H-1,2,4-triazol-5-yl]ethyl}-5-(trifluoromethoxy)benzamide] was tested, and the “efficacy (larvae dead or moribund)” value [1] was 100%, the pest or weed control at 5 µg/cm2, 500 g/ha [2] was 100% and the pest or weed control at 32 µg/disc, 100 g/ha [3] was 80%. For the same compound, the mortality at 100 g/ha [4] was 90%, the “efficacy (infertile eggs)” value [5] was 100% and the mortality at 4 mg/m2 ([6]; surface concentration 4 mg/m^2, 30 min exposure) was 80 to 100%. The mortality at 20 mg/m2 ([6]; surface concentration 20 mg/m^2, 30 min exposure) was 80 to 100%, the mortality at 100 ppm [7] was 100% and the mortality at 100 g/ha [8] was 100%. The Emax at 20 g/ha ([8]; SPODFR, 20 g ai/ha, 7 dat (Table 3), read-out: % Efficacy) was 100%.
